Source: patent US20250026765A1, “SPIROHETEROCYCLE DERIVATIVE HAVING SEROTONIN RECEPTOR BINDING ACTIVITY” (Shionogi & Co., Ltd., priority 2021, published 2025)

Molecular target: human recombinant 5-HT2A receptor (Homo sapiens (Human), UniProt P28223)
Assay: 5-HT2A receptor binding inhibition test ([3H]-Ketanserin)
Conditions: Jump-In HEK cell membrane, 25° C. 1.5 hours, read-out: h-5-HT2A Ki
Method: Test Example 1: 5-HT2A Receptor Binding Inhibition Test
(§1) (Each Experimental Condition)
Cell membrane: 15 μg of Jump-In HEK cell membrane (expressing human recombinant 5-HT2A receptor) per well
(§2) Assay buffer: Tris-HCl 50 mmol/L (pH 7.4) containing NaCl 120 mmol/L, MgCl2·6H2O 1 mmol/L, KCl 5 mmol/L, 0.1% BSA and CaCl2 2 mmol/L
Radioactive ligand: [^3H]-Ketanserin with a final concentration of around Kd value calculated by the following method
Non-specific ligand: Serotonin HCl with a final concentration of 500 μmol/L
(§3) The Kd value is calculated when the lot of cell membrane is changed. In advance, 0.5 μL of a 1 mmol/L compound for non-specific binding calculation dissolved in DMSO or DMSO is dispensed into a microplate, and the cell membrane is diluted with an Assay buffer. The radioactive ligand solution is serially diluted and the count is confirmed with a liquid scintillator. Assay buffer containing diluted cell membrane is dispensed into a microplate at 50 μL/well. Then, the radioactive ligand solution is dispensed into a microplate at 50 μL/well, and the plate is sealed. It is allowed to stand at room temperature (25° C.) for 1.5 hours. During this period, 50 mmol/L Tris-HCl (pH 7.4) is dispensed into a GF/B UniFilter plate at 50 μL/well and allowed to stand at 4° C. for 1 hour or longer. After that, filtration is performed with Cell harvester (PerkinElmer). The radioactive ligand solution is dispensed into an empty well of the GF/B UniFilter plate at 10 μL/well. After the GF/B UniFilter plate is dried at room temperature, MicroScinti 20 is dispensed into the GF/B UniFilter plate at 50 μL/well to seal the plate. The GF/B UniFilter plate is allowed to stand overnight at room temperature. The radioactivity of [^3H]-Ketanserin bound to the 5-HT2A receptor is measured using Microbeta2 (PerkinElmer) at a measurement time of 1 min/well. The Saturation curve is drawn from the measured value, and the Kd value is calculated from the slope of the Scatchard Plot.
(§4) (Binding Test of the Compound According to the Present Invention)
In advance, 0.5 μL of the compound solution dissolved in DMSO is dispensed into a microplate, and the cell membrane and the hot ligand are diluted with Assay buffer, respectively. Then, the Assay buffer containing the diluted cell membrane is dispensed into a microplate at 50 μL/well. Then, the radioactive ligand solution is dispensed into a microplate at 50 μL/well, and the plate is sealed. Then, it is allowed to stand at room temperature (25° C.) for 1.5 hours. During this period, 50 mmol/L Tris-HCl (pH 7.4) is dispensed into a GF/B UniFilter plate at 50 μL/well and allowed to stand at 4° C. for 1 hour or longer. After that, filtration is performed with Cell harvester (PerkinElmer). After the GF/B UniFilter plate is dried at room temperature, MicroScinti 20 is dispensed into the GF/B UniFilter plate at 50 μL/well to seal the plate. The GF/B UniFilter plate is allowed to stand overnight at room temperature. The radioactivity of [^3H]-Ketanserin bound to the 5-HT2A receptor is measured using Microbeta2 (PerkinElmer) at a measurement time of 1 min/well. The non-specific binding is calculated from the radioactivity of [^3H]-Ketanserin in the presence of 500 μmol/L Serotonin HCl which is the unlabeled ligand, and the total binding is calculated from the radioactivity of [^3H]-Ketanserin in the absence of the compound according to the present invention (Vehicle). Finally, the Ki value is calculated from the dose-response curve.
(§5) (The binding activity of the compound according to the present invention is calculated from the following binding inhibition rate (%).)
(§6) [formula] • a; mean cpm of non-specific binding • b; average cpm of total binding • c; cpm in the presence of the test compound

human recombinant 5-HT2A receptor, sequence (P28223 whole entry): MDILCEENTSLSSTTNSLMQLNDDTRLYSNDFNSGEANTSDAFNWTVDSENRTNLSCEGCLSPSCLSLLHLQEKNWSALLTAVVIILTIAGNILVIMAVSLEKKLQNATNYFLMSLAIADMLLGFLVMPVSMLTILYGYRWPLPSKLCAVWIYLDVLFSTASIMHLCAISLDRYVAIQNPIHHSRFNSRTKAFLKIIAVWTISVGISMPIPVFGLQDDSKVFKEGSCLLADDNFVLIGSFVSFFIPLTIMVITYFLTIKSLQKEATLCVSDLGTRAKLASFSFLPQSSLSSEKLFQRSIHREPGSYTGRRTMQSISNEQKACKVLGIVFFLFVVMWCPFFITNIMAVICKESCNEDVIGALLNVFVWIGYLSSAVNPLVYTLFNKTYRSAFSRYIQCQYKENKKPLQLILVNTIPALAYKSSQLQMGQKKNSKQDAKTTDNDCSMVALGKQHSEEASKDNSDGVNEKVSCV

| Ki [nM] | Structure (SMILES) |
| --- | --- |
| < 10 | CC(C)COc1ccc(CN(Cc2ccccn2)C2=NOC3(CCN(C)CC3)N2)cc1 [Compound I-012] |
| 10 to 100 | Cc1nc(CN(Cc2ccsc2)C2=NOC3(CCN(C)CC3)N2)co1 [Compound I-073] |
| 10 to 100 | CC(C)COc1ccc(CN(Cc2ccc(F)cc2)C2=NC3(CCN(C)CC3)CO2)cc1 [Compound I-020] |
| < 10 | Cc1cc(CN(Cc2ccc(OCC(C)C)cc2)C2=NOC3(CCN(C)CC3)N2)no1 [Compound I-075] |
| 10 to 100 | COc1ccc(CN(Cc2coc(C)n2)C2=NOC3(CCN(C)CC3)N2)cn1 [Compound I-120] |
| < 10 | CN1CCC2(ON=C(Cc3ccc(OC4CC4)cc3)N2Cc2ccn(C)n2)C2(CC2)C1 (racemic) [Compound I-041] |
| 100 to 500 | CC(C)COc1ccc(CN(Cc2coc(-c3ccccc3)n2)C2=NOC3(CCN(C)CC3)N2)cc1 [Compound I-118] |
| 10 to 100 | Cc1ccc(CN(Cc2ccc(OCC(C)C)cc2)C2=NC(=O)C3(CCN(C)CC3)N2)cn1 [Compound I-059] |
| 100 to 500 | CN1CCC2(CC1)NC(N(CC(=O)Nc1ccc(Cl)cc1)Cc1ccn(C)n1)=NO2 [Compound I-056] |

| Structure (SMILES) | Ki [nM] |
| --- | --- |
| CCCOc1ccc(CN(Cc2coc(C)n2)C2=NOC3(CCN(C)CC3)N2)cc1 [Compound I-028] | < 10 |
| CCCCOc1ccc(CN(Cc2coc(C)n2)C2=NOC3(CCN(C)CC3)N2)c(Br)c1 [Compound I-092] | < 10 |
| CCCOc1ccc(CN(Cc2coc(C)n2)C2=NOC3(CCN(C)CC3)N2)c(Cl)c1 [Compound I-126] | < 10 |
| Cc1nc(CN(Cc2ccc(OCC(C)(F)F)cc2)C2=NOC3(CCN(C)CC3)N2)co1 [Compound I-065] | < 10 |

Same assay, conditions: Jump-In HEK cell membrane, 25° C. 1.5 hours, read-out: human serotonin 5-HT2A receptor binding activity Ki

| Ki [nM] | Structure (SMILES) |
| --- | --- |
| 1.22 | Cc1nc(CN(Cc2ccc(OCC(C)C)cc2)C2=NOC3(CCN(C)CC3)N2)co1 [Compound I-011] |
| 85.3 | CC(C)COc1ccc(CN=C2NC(=O)CC3(CCN(C)CC3)N2Cc2ccc(F)cc2)cc1 [Compound I-005] |
| 5.2 | Cc1nc(CN(Cc2ccc(OCC(C)C)cc2)C2=NC(=O)C3(CCN(C)CC3)N2)cs1 [Compound I-057] |

Molecular target: human recombinant 5-HT2C receptor (Homo sapiens (Human), UniProt P28335)
Sequence (P28335 33-458): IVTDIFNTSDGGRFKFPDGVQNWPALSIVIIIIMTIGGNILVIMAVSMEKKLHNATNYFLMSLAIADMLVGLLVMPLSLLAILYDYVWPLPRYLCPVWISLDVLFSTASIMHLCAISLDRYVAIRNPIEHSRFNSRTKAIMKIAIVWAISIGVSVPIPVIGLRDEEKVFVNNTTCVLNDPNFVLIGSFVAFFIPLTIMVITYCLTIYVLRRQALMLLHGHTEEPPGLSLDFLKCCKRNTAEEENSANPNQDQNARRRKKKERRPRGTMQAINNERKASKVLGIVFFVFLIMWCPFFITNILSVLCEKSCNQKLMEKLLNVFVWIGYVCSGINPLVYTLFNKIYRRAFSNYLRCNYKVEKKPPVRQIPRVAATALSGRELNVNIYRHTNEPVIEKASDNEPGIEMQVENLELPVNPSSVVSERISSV
Assay: 5-HT2C receptor binding inhibition test ([3H]-Mesulergine)
Conditions: Jump-In HEK cell membrane, 37° C. 2 hours, read-out: h-5-HT2C Ki
Method: Test Example 2: 5-HT2C Receptor Binding Inhibition Test
as §1
Cell membrane: 0.5 μg of Jump-In HEK cell membrane (expressing human recombinant 5-HT2C receptor) per well
as §2
Radioactive ligand: [^3H]-Mesulergine with a final concentration of around Kd value calculated by the following method
Non-specific ligand: Serotonin HCl with a final concentration of […]
as §3, with “37° C.” for “room temperature (25° C.)”, “2” for “1.5”, “[^3H]-Mesulergine” for “[^3H]-Ketanserin”, “5-HT2C” for “5-HT2A”
as §4
In advance, 0.5 μL of the compound solution dissolved in DMSO is dispensed into a microplate, and the cell membrane and the hot ligand are diluted with Assay buffer, respectively. Then, the Assay buffer containing the diluted cell membrane is dispensed into a microplate at 50 μL/well. Then, the radioactive ligand solution is dispensed into a microplate at 50 μL/well, and the plate is sealed. Then, it is allowed to stand at 37° C. for 2 hours. During this period, 50 mmol/L Tris-HCl (pH 7.4) is dispensed into a GF/B UniFilter plate at 50 μL/well and allowed to stand at 4° C. for 1 hour or longer. After that, filtration is performed with Cell harvester (PerkinElmer). After the GF/B UniFilter plate is dried at room temperature, MicroScinti 20 is dispensed into the GF/B UniFilter plate at 50 μL/well, and the plate is sealed. The GF/B UniFilter plate is allowed to stand overnight at room temperature. The radioactivity of [^3H]-Mesulergine bound to the 5-HT2C receptor is measured using Microbeta2 (PerkinElmer) at a measurement time of 1 min/well. The non-specific binding is calculated from the radioactivity of […] in the presence of 500 μmol/L Serotonin HCl which is the unlabeled ligand, and the total binding is calculated from the radioactivity of [^3H]-Mesulergine in the absence of the compound according to the present invention (Vehicle). Finally, the Ki value is calculated from the dose-response curve.
as §5, §6

| Ki [nM] | Structure (SMILES) |
| --- | --- |
| 10 to 100 | CC(C)COc1ccc(CN(Cc2ccccn2)C2=NOC3(CCN(C)CC3)N2)cc1 [Compound I-012] |
| < 10 | Cc1nc(CN(Cc2ccsc2)C2=NOC3(CCN(C)CC3)N2)co1 [Compound I-073] |
| 100 to 500 | CC(C)COc1ccc(CN(Cc2ccc(F)cc2)C2=NC3(CCN(C)CC3)CO2)cc1 [Compound I-020] |
| 100 to 500 | Cc1cc(CN(Cc2ccc(OCC(C)C)cc2)C2=NOC3(CCN(C)CC3)N2)no1 [Compound I-075] |
| 10 to 100 | COc1ccc(CN(Cc2coc(C)n2)C2=NOC3(CCN(C)CC3)N2)cn1 [Compound I-120] |
| < 10 | CN1CCC2(ON=C(Cc3ccc(OC4CC4)cc3)N2Cc2ccn(C)n2)C2(CC2)C1 (racemic) [Compound I-041] |
| 100 to 500 | CC(C)COc1ccc(CN(Cc2coc(-c3ccccc3)n2)C2=NOC3(CCN(C)CC3)N2)cc1 [Compound I-118] |
| 10 to 100 | CC(C)COc1ccc(CN(Cc2ccc(F)cc2)C2=NOC3(CCN(C)CC3)N2)cc1 [Compound I-060] |

| Structure (SMILES) | Ki [nM] |
| --- | --- |
| CCCOc1ccc(CN(Cc2coc(C)n2)C2=NOC3(CCN(C)CC3)N2)cc1 [Compound I-028] | < 10 |
| CCCCOc1ccc(CN(Cc2coc(C)n2)C2=NOC3(CCN(C)CC3)N2)c(Br)c1 [Compound I-092] | < 10 |
| CCCOc1ccc(CN(Cc2coc(C)n2)C2=NOC3(CCN(C)CC3)N2)c(Cl)c1 [Compound I-126] | < 10 |
| Cc1nc(CN(Cc2ccc(OCC(C)(F)F)cc2)C2=NOC3(CCN(C)CC3)N2)co1 [Compound I-065] | < 10 |

Same assay, conditions: Jump-In HEK cell membrane, 37° C. 2 hours, read-out: human serotonin 5-HT2C receptor binding activity Ki

| Ki [nM] | Structure (SMILES) |
| --- | --- |
| 0.585 | Cc1nc(CN(Cc2ccc(OCC(C)C)cc2)C2=NOC3(CCN(C)CC3)N2)co1 [Compound I-011] |
| 219 | CC(C)COc1ccc(CN=C2NC(=O)CC3(CCN(C)CC3)N2Cc2ccc(F)cc2)cc1 [Compound I-005] |
| 2.19 | Cc1nc(CN(Cc2ccc(OCC(C)C)cc2)C2=NC(=O)C3(CCN(C)CC3)N2)cs1 [Compound I-057] |
